Measured values as given in patent US20240317731A1, “AMINOTHIAZOLE COMPOUNDS AS C-KIT INHIBITORS” (Theseus Pharmaceuticals, Inc., priority 2021, published 2024).

Columns and labels:
[1] = In vivo pharmacokinetic studies in non-human primates (monkeys); set-up: species or system monkey; details: male and female monkeys, oral
Protocol: Pharmacokinetic studies of Compound (1a) in non-human primates were also undertaken in male (FIG. 2A) and female (FIG. 2B) monkeys at two different doses (2 mg/kg and 4 mg/kg) via oral administration.

[2] = molecular target: BAF3 KIT EX11 DEL (Homo sapiens, UniProt P10721, cells depend on it, form not given); assay: Ba/F3 KIT mutant viability assay (Cell Titer-Glo), EX11 DEL; assay type: cell-based; details: 72 hours
Protocol: (§1) KIT cDNAs were synthesized by GenScript and cloned into the pLVX-IRES-Puro vector (Clontech). Viral particles were produced by transfecting pLVX-IRES-puro vectors containing KIT mutant genes into HEK293 cells (Invitrogen) using the Trans-Lentiviral ORF Packaging Kit (Thermo Scientific). 48 hours post-transfection, virus-containing supernatants were harvested and incubated for another 48-72 hours with parental Ba/F3 cells (DSMZ) in the presence of 10 ng/ml IL-3 (R&D Systems). Transduced Ba/F3 cells were then selected by IL-3 withdrawal and puromycin (0.5-1 μg/mL, Invitrogen).
(§2) Cell lines (e.g., EX11DEL, EX11KEL/D816H, EX11DEL/T670I, and EX11DEL/V654A) were plated into 384 well plates using RPMI 1640 supplemented with 10% FBS at densities that produced linear growth and incubated at 37° C. in 5%(v/v) CO2. Cells were treated with eight concentrations of compound over a 4-fold dilution (10 uM to 0.61 nM) and viability was assessed using Cell Titer-Glo assay (Promega) after 72 hours. Data were plotted as percent viability relative to vehicle-treated cells. Dose-responses curves were generated and used to calculate IC50 values.

[3] = molecular target: BAF3 KIT EX11 DEL/V654A (Homo sapiens, UniProt P10721, V654A, cells depend on it, form not given); assay: Ba/F3 KIT mutant viability assay (Cell Titer-Glo), EX11 DEL/V654A; assay type: cell-based; details: 72 hours
Protocol: as §1, §2

[4] = In vivo pharmacokinetic studies in rats; details: rat
Excerpt: For example, the pharmacokinetics of Compound (1a) has been studied. […] After repeat dosing for 10 days, increased AUC (area under the curve) were obtained with Compound (1a) at either dose (see FIG. 1).

[5] = molecular target: BAF3 KIT EX11 DEL/D816H (Homo sapiens, UniProt P10721, D816H, cells depend on it, form not given); assay: Ba/F3 KIT mutant viability assay (Cell Titer-Glo), EX11 DEL/D816H; assay type: cell-based; details: 72 hours
Protocol: as §1, §2

[6] = molecular target: BAF3 KIT EX11 DEL/T670I (Homo sapiens, UniProt P10721, T670I, cells depend on it, form not given); assay: Ba/F3 KIT mutant viability assay (Cell Titer-Glo), EX11 DEL/T670I; assay type: cell-based; details: 72 hours
Protocol: as §1, §2

BAF3 KIT EX11 DEL/T670I, sequence (P10721 with tags, fused parts or gaps DEL557-558/T670I, form open): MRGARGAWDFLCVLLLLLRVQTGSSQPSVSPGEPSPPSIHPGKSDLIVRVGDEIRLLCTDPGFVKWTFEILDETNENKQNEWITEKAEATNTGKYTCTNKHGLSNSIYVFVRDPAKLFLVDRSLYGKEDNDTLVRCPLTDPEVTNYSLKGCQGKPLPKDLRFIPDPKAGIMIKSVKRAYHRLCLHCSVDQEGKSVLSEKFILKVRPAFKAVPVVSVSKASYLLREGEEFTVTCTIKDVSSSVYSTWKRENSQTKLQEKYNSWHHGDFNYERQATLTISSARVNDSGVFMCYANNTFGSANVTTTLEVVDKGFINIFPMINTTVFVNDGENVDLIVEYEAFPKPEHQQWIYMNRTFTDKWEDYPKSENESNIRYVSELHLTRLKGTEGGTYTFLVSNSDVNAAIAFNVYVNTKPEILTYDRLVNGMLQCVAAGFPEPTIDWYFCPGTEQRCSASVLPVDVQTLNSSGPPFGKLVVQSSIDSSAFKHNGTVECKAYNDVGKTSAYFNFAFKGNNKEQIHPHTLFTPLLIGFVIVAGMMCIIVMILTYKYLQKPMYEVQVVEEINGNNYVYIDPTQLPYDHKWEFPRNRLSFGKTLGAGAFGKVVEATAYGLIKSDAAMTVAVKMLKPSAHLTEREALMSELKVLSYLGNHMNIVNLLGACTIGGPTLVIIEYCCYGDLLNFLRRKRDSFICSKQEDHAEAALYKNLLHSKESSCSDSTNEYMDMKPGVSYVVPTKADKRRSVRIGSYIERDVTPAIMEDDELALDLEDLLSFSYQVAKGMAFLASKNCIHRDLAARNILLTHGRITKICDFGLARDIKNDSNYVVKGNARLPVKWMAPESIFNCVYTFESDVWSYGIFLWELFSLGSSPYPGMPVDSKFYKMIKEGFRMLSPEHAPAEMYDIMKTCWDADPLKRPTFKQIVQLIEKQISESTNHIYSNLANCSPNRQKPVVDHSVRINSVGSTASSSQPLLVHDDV
BAF3 KIT EX11 DEL/V654A, sequence (P10721 with tags, fused parts or gaps DEL557-558/V654A, form open): as the sequence (P10721 with tags, fused parts or gaps DEL557-558/T670I, form open) above, with V652A, I668T counted along it
BAF3 KIT EX11 DEL, sequence (P10721 with tags, fused parts or gaps DEL557-558): as the sequence (P10721 with tags, fused parts or gaps DEL557-558/T670I, form open) above, with I668T counted along it
BAF3 KIT EX11 DEL/D816H, sequence (P10721 with tags, fused parts or gaps DEL557-558/D816H, form open): as the sequence (P10721 with tags, fused parts or gaps DEL557-558/T670I, form open) above, with I668T, D814H counted along it

curve shapes and AUC, Day 1 versus Day 10 ([1]; 2 mg/kg and 4 mg/kg (either dose), FIG. 2A/2B)	exposure after repeat dosing ([1]; 2 mg/kg and 4 mg/kg, Day 10 versus Day 1)	AUC (area under the curve) after repeat dosing ([4]; oral, 10 mg/kg and 30 mg/kg (either dose), repeat dosing for 10 days, FIG. 1)	clearance (Cl) ([4]; single dose)	volume of distribution (Vd) ([4]; single dose)	SMILES	GI50 [2]	GI50 [3]	average observed plasma concentration (Cav) versus target exposure ([4]; oral, 30 mg/kg (the latter dose))	GI50 [5]	GI50 [6]
similar	no significant loss of exposure	increased	high	high	Cc1ccc(NC(=O)c2cc(C(F)(F)F)ccn2)cc1C#Cc1cnc(NC(=O)N2CC[C@H](N(C)C)C2)s1 [Compound 1a, N-[3-[2-[2-[[(3S)-3-(dimethylamino)pyrrolidine-1-carbonyl]amino]thiazol-5-yl]ethynyl]-4-methyl-phenyl]-4-(trifluoromethyl)pyridine-2-carboxamide]	< 10 nM	10 to 50 nM	exceeded target exposure required for achieving desired antitumor efficacy	10 to 50 nM	10 to 50 nM
					Cc1ccc(NC(=O)c2cc(C(F)(F)F)ccn2)cc1C#Cc1cnc(NC(=O)N2CC[C@@H](N(C)C)C2)s1 [Compound 1b]	< 10 nM	10 to 50 nM		10 to 50 nM	10 to 50 nM
					Cc1ccc(NC(=O)c2cc(C(F)(F)F)ccn2)cc1C#Cc1cnc(NC(=O)N2CC[C@@H](O)C2)s1 [Compound 2a]	< 10 nM	< 10 nM		< 10 nM	< 10 nM
					Cc1ccc(NC(=O)c2cc(C(F)(F)F)ccn2)cc1C#Cc1cnc(NC(=O)N2CC[C@H](O)C2)s1 [Compound 2b]	< 10 nM	< 10 nM		< 10 nM	< 10 nM
					Cc1ccc(NC(=O)c2cc(C(F)(F)F)ccn2)cc1C#Cc1cnc(NC(=O)N2CC(O)C2)s1 [Compound 3]	< 10 nM	10 to 50 nM		10 to 50 nM	10 to 50 nM
					Cc1ccc(NC(=O)c2cc(C(F)(F)F)ccn2)cc1C#Cc1cnc(NC(=O)N2CC(C)(O)C2)s1 [Compound 4]	< 10 nM	10 to 50 nM		10 to 50 nM	10 to 50 nM
					CN[C@H]1CCN(C(=O)Nc2ncc(C#Cc3cc(NC(=O)c4cc(C(F)(F)F)ccn4)ccc3C)s2)C1 [Compound 5a]	< 10 nM	10 to 50 nM		10 to 50 nM	50 to 100 nM
